# Assay results as given in patent US20250296953A1, “3,4-THIAZOLO-STEROIDS AND METHODS OF MAKING AND USING THE SAME” (Arkansas State University - Jonesboro, priority 2018, published 2025).
# Where two headings read alike, the source gives them in different places.
# Columns and labels:
# [1] = system: 60 different human tumor cell lines; assay: NCI Development Therapeutics Program 60 cell line screen, one dose; type: cell-based
# SF-539 = assay: NCI 60 one dose screen; type: cell-based, human; conditions: one dose; CNS Cancer; SF-539
# SR = assay: NCI 60 five dose screen; conditions: for CC50: read-out: LC50
# [2] = Non-small Cell Lung Cancer, A549/ATCC
# [3] = Non-small Cell Lung Cancer, EKVX
# [4] = Non-small Cell Lung Cancer, HOP-62
# [5] = Non-small Cell Lung Cancer, NCI-H23
# [6] = Non-small Cell Lung Cancer, NCI-H226
# [7] = Non-small Cell Lung Cancer, NCI-H322M
# [8] = Non-small Cell Lung Cancer, NCI-H460
compound,measurement,setting,value
"C[C@]12CC[C@H]3[C@@H](CC=C4c5sc(-c6ccc(O)cc6)nc5CC[C@@]43C)[C@@H]1CC[C@@H]2O [III.5, (1S,2R,13R,14S,17S,18S)-7-(4-hydroxyphenyl)-2,18-dimethyl-8-thia-6-azapentacyclo[11.7.0.02,10.05,9.014,18]icosa-5(9),6,10-trien-17-ol]",Growth Percent,"[1]; Breast Cancer, BT-549",59.26%
same,Growth Percent,"[1]; Breast Cancer, HS 578T",4.16%
same,Growth Percent,"[1]; Breast Cancer, MCF7",42.59%
same,Growth Percent,"[1]; Breast Cancer, MDA-MB-231/ATCC",56.24%
same,Growth Percent,"[1]; Breast Cancer, MDA-MB-468",81.03%
same,Growth Percent,"[1]; Breast Cancer, T-47D",67.74%
same,Growth Percent,"[1]; CNS Cancer, SF-268",48.55%
same,Growth Percent,"[1]; CNS Cancer, SNB-19",71.05%
same,Growth Percent,"[1]; CNS Cancer, SNB-75",26.42%
same,Growth Percent,"[1]; CNS Cancer, U251",20.08%
same,Growth Percent,"[1]; Colon Cancer, COLO 205",77.66%
same,Growth Percent,"[1]; Colon Cancer, HCC-2998",95.33%
same,Growth Percent,"[1]; Colon Cancer, HCT-116",43.80%
same,Growth Percent,"[1]; Colon Cancer, HT29",19.90%
same,Growth Percent,"[1]; Colon Cancer, KM12",60.79%
same,Growth Percent,"[1]; Colon Cancer, SW-620",71.71%
same,Growth Percent,"[1]; Leukemia, CCRF-CEM",13.10%
same,Growth Percent,"[1]; Leukemia, HL-60(TB)",22.65%
same,Growth Percent,"[1]; Leukemia, K-562",13.87%
same,Growth Percent,"[1]; Leukemia, MOLT-4",−23.23%
same,Growth Percent,"[1]; Leukemia, RPMI-8226",−36.92%
same,Growth Percent,"[1]; Leukemia, SR",5.95%
same,Growth Percent,"[1]; Melanoma, LOX IMVI",25.37%
same,Growth Percent,"[1]; Melanoma, M14",60.54%
same,Growth Percent,"[1]; Melanoma, MALME-3M",72.42%
same,Growth Percent,"[1]; Melanoma, MDA-MB-435",91.96%
same,Growth Percent,"[1]; Melanoma, SK-MEL-2",44.94%
same,Growth Percent,"[1]; Melanoma, SK-MEL-5",71.98%
same,Growth Percent,"[1]; Melanoma, SK-MEL-28",53.31%
same,Growth Percent,"[1]; Melanoma, UACC-62",28.69%
same,Growth Percent,"[1]; Melanoma, UACC-257",66.19%
same,Growth Percent,[1]; [2],52.15%
same,Growth Percent,[1]; [3],63.56%
same,Growth Percent,[1]; [4],46.75%
same,Growth Percent,[1]; [5],74.72%
same,Growth Percent,[1]; [6],109.87%
same,Growth Percent,[1]; [7],92.82%
same,Growth Percent,[1]; [8],41.91%
same,Growth Percent,"[1]; Ovarian Cancer, IGROV1",80.66%
same,Growth Percent,"[1]; Ovarian Cancer, NCI/ADR-RES",76.79%
same,Growth Percent,"[1]; Ovarian Cancer, OVCAR-3",38.63%
same,Growth Percent,"[1]; Ovarian Cancer, OVCAR-4",81.75%
same,Growth Percent,"[1]; Ovarian Cancer, OVCAR-5",106.38%
same,Growth Percent,"[1]; Ovarian Cancer, OVCAR-8",74.18%
same,Growth Percent,"[1]; Ovarian Cancer, SK-OV-3",38.63%
same,Growth Percent,"[1]; Prostate Cancer, DU-145",63.77%
same,Growth Percent,"[1]; Prostate Cancer, PC-3",49.49%
same,Growth Percent,"[1]; Renal Cancer, 786-0",8.35%
same,Growth Percent,"[1]; Renal Cancer, A498",49.45%
same,Growth Percent,"[1]; Renal Cancer, ACHN",46.04%
same,Growth Percent,"[1]; Renal Cancer, CAKI-1",61.32%
same,Growth Percent,"[1]; Renal Cancer, RXF 393",−46.32%
same,Growth Percent,"[1]; Renal Cancer, SN12C",96.68%
same,Growth Percent,"[1]; Renal Cancer, TK-10",89.27%
same,Growth Percent,"[1]; Renal Cancer, UO-31",9.33%
same,Growth Percent,SF-539,8.02%
same,GI50,"SR; Homo sapiens, SR",1.37 µM
same,CC50,"SR; Homo sapiens, SR",> 100 µM
same,TGI,"SR; SR (Leukemia), five dose",3.38E−5
C[C@]12CCc3nc(N)sc3C1=CC[C@@H]1[C@@H]2CC[C@]2(C)C(=NNC(N)=O)CC[C@@H]12 [IVb.1],Growth Percent,"[1]; Breast Cancer, BT-549",107.48%
same,Growth Percent,"[1]; Breast Cancer, HS 578T",36.38%
same,Growth Percent,"[1]; Breast Cancer, MCF7",−55.62%
same,Growth Percent,"[1]; Breast Cancer, MDA-MB-231/ATCC",35.18%
same,Growth Percent,"[1]; Breast Cancer, MDA-MB-468",−46.23%
same,Growth Percent,"[1]; Breast Cancer, T-47D",−21.02%
same,Growth Percent,"[1]; CNS Cancer, SF-268",−6.41%
same,Growth Percent,"[1]; CNS Cancer, SNB-19",−9.98%
same,Growth Percent,"[1]; CNS Cancer, SNB-75",99.02%
same,Growth Percent,"[1]; CNS Cancer, U251",−69.94%
same,Growth Percent,"[1]; Colon Cancer, COLO 205",34.98%
same,Growth Percent,"[1]; Colon Cancer, HCC-2998",63.85%
same,Growth Percent,"[1]; Colon Cancer, HCT-116",6.35%
same,Growth Percent,"[1]; Colon Cancer, HT29",13.20%
same,Growth Percent,"[1]; Colon Cancer, KM12",20.47%
same,Growth Percent,"[1]; Colon Cancer, SW-620",−59.20%
same,Growth Percent,"[1]; Leukemia, CCRF-CEM",−5.86%
same,Growth Percent,"[1]; Leukemia, HL-60(TB)",42.82%
same,Growth Percent,"[1]; Leukemia, K-562",−38.55%
same,Growth Percent,"[1]; Leukemia, MOLT-4",13.35%
same,Growth Percent,"[1]; Leukemia, RPMI-8226",−6.28%
same,Growth Percent,"[1]; Leukemia, SR",−21.79%
same,Growth Percent,"[1]; Melanoma, LOX IMVI",−67.61%
same,Growth Percent,"[1]; Melanoma, M14",−51.14%
same,Growth Percent,"[1]; Melanoma, MALME-3M",3.07%
same,Growth Percent,"[1]; Melanoma, MDA-MB-435",−58.82%
same,Growth Percent,"[1]; Melanoma, SK-MEL-5",20.55%
same,Growth Percent,"[1]; Melanoma, SK-MEL-28",13.00%
same,Growth Percent,"[1]; Melanoma, UACC-62",38.92%
same,Growth Percent,"[1]; Melanoma, UACC-257",105.26%
same,Growth Percent,[1]; [2],0.92%
same,Growth Percent,[1]; [3],−4.54%
same,Growth Percent,[1]; [4],75.49%
same,Growth Percent,"[1]; Non-small Cell Lung Cancer, HOP-92",46.57%
same,Growth Percent,[1]; [5],−44.30%
same,Growth Percent,[1]; [6],107.87%
same,Growth Percent,[1]; [7],52.42%
same,Growth Percent,[1]; [8],−38.65%
same,Growth Percent,"[1]; Ovarian Cancer, IGROV1",2.90%
same,Growth Percent,"[1]; Ovarian Cancer, NCI/ADR-RES",−5.32%
same,Growth Percent,"[1]; Ovarian Cancer, OVCAR-3",−32.35%
same,Growth Percent,"[1]; Ovarian Cancer, OVCAR-4",−19.07%
same,Growth Percent,"[1]; Ovarian Cancer, OVCAR-5",72.93%
same,Growth Percent,"[1]; Ovarian Cancer, OVCAR-8",−2.26%
same,Growth Percent,"[1]; Ovarian Cancer, SK-OV-3",100.67%
same,Growth Percent,"[1]; Prostate Cancer, PC-3",57.29%
same,Growth Percent,"[1]; Renal Cancer, 786-0",−9.65%
same,Growth Percent,"[1]; Renal Cancer, A498",91.62%
same,Growth Percent,"[1]; Renal Cancer, ACHN",32.38%
same,Growth Percent,"[1]; Renal Cancer, CAKI-1",62.97%
same,Growth Percent,"[1]; Renal Cancer, RXF 393",7.08%
same,Growth Percent,"[1]; Renal Cancer, SN12C",18.09%
same,Growth Percent,"[1]; Renal Cancer, TK-10",49.21%
same,Growth Percent,"[1]; Renal Cancer, UO-31",85.84%
same,Growth Percent,SF-539,87.19%
same,GI50,"SR; SR (Leukemia), five dose",1.29 µM
same,TGI,"SR; SR (Leukemia), five dose",4.33E−6
same,CC50,"SR; SR (Leukemia), five dose",> 100 µM
